System: human maximum recommended daily dose, FDA database
Experiment: DSSTox (FDAMDD) FDA Maximum (Recommended) Daily Dose Database
Settings: active compounds read low
How it was run: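 MRDD values come from clinical trials with daily oral dosing, usually for 3–12 months, for the average adult, in mg/day converted to mg/kg-bw/day assuming 60 kg. Antineoplastic mg/m2 doses are divided by 37. Activity score maps log10(1/MRDD mmol) onto 1–100.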

[1] = TherapeuticCategory: glucocorticoid
[2] = TherapeuticCategory: antibacterial
[3] = TherapeuticCategory: antineoplastic

Compound: C=CCN1C[C@H](C(=O)N(CCCN(C)C)C(=O)NCC)C[C@@H]2c3cccc4[nH]cc(c34)C[C@H]21
- maximum recommended daily dose (mmol/kg-bw/day) (TherapeuticCategory: antidyskinetic, prolactin inhibitor, antiparkinsonian, dopamine receptor antagonist): 4.43e-05

Compound: O=C(CCCCC(=O)Nc1c(I)cc(I)c(C(=O)O)c1I)Nc1c(I)cc(I)c(C(=O)O)c1I
- maximum recommended daily dose (mmol/kg-bw/day) (TherapeuticCategory: diagnostic aid): 0.147

Compound: CN(C)CCOC(C)(c1ccccc1)c1ccccn1 (configuration not stated)
- maximum recommended daily dose (mmol/kg-bw/day) (TherapeuticCategory: antihistaminic, hypnotic): 0.00154

Compound: CN1CCN(CCCN2c3ccccc3Sc3ccc(S(=O)(=O)N(C)C)cc32)CC1
- maximum recommended daily dose (mmol/kg-bw/day) (TherapeuticCategory: neuroleptic, antiemetic): 0.00149

Compound: CCC(=O)OCC(=O)[C@@]1(OC(=O)CC)[C@@H](C)C[C@H]2[C@@H]3CCC4=CC(=O)C=C[C@]4(C)[C@@]3(F)[C@@H](O)C[C@@]21C
- maximum recommended daily dose (mmol/kg-bw/day) [1]: 0.000297

Compound: CCC1(c2ccccc2)NC(=O)N(C)C1=O (configuration not stated)
- maximum recommended daily dose (mmol/kg-bw/day) (TherapeuticCategory: anticonvulsant): 0.0458

Compound: C[C@](O)(CS(=O)(=O)c1ccc(F)cc1)C(=O)Nc1ccc(C#N)c(C(F)(F)F)c1
- maximum recommended daily dose (mmol/kg-bw/day) (TherapeuticCategory: antiandrogen, antineoplastic): 0.00194

Compound: O=C(c1ccc(OCCN2CCCCC2)cc1)c1c(-c2ccc(O)cc2)sc2cc(O)ccc12
- maximum recommended daily dose (mmol/kg-bw/day) (TherapeuticCategory: antiosteoporotic, antiestrogen): 0.0211

Compound: CCOc1cc(CC(=O)N[C@@H](CC(C)C)c2ccccc2N2CCCCC2)ccc1C(=O)O
- maximum recommended daily dose (mmol/kg-bw/day) (TherapeuticCategory: antidiabetic): 0.00059

Compound: CC(=O)OCC(=O)[C@@]1(O)[C@@H](C)C[C@H]2[C@@H]3CCC4=CC(=O)C=C[C@]4(C)[C@@]3(F)[C@@H](O)C[C@@]21C
- maximum recommended daily dose (mmol/kg-bw/day) [1]: 0.000345

Compound: CN=C1CN(O)C(c2ccccc2)=c2cc(Cl)ccc2=N1
- maximum recommended daily dose (mmol/kg-bw/day) (TherapeuticCategory: anxiolytic): 0.00557

Compound: C[C@]12C=CC(=O)C=C1CC[C@@H]1[C@@H]2CC[C@@]2(C)[C@H]1CC[C@]2(C)O
- maximum recommended daily dose (mmol/kg-bw/day) (TherapeuticCategory: androgen): 0.000222

Compound: CO/N=C(/C(=O)N[C@@H]1C(=O)N2C(C(=O)O)=C(COC(N)=O)CS[C@H]12)c1ccco1
- maximum recommended daily dose (mmol/kg-bw/day) [2]: 0.0394

Compound: CCC1NC(=O)c2cc(S(N)(=O)=O)c(Cl)cc2N1 (configuration not stated)
- maximum recommended daily dose (mmol/kg-bw/day) (TherapeuticCategory: diuretic): 0.0115

Compound: CNC[C@H](O)c1ccc(O)c(O)c1
- maximum recommended daily dose (mmol/kg-bw/day) (TherapeuticCategory: adrenergic, bronchodilator, mydriatic, antiglaucoma): 9.12e-05

Compound: CCN(CC)CCNc1ccc(CO)c2sc3ccccc3c(=O)c12
- maximum recommended daily dose (mmol/kg-bw/day) (TherapeuticCategory: antihelmintic): 0.0281

Compound: C/C(=C(/CCO)SSCC1CCCO1)N(C=O)Cc1cnc(C)nc1N (configuration not stated)
- maximum recommended daily dose (mmol/kg-bw/day) (TherapeuticCategory: enzyme cofactor): 0.00419

Compound: CC(=O)O[C@H]1C[C@H](O[C@H]2[C@@H](O)C[C@H](O[C@H]3[C@@H](O)C[C@H](OC4CC[C@@]5(C)[C@H](CC[C@@H]6[C@@H]5CC[C@]5(C)[C@@H](C7=CC(=O)OC7)CC[C@]65O)C4)O[C@@H]3C)O[C@@H]2C)O[C@H](C)[C@H]1O[C@@H]1O[C@H](CO)[C@@H](O)[C@H](O)[C@H]1O (some centres not stated)
- maximum recommended daily dose (mmol/kg-bw/day) (TherapeuticCategory: cardiotonic): 3.44e-05

Compound: CC1(C)S[C@@H]2[C@H](NC(=O)[C@H](N)c3ccc(O)cc3)C(=O)N2[C@H]1C(=O)O
- maximum recommended daily dose (mmol/kg-bw/day) [2]: 0.0596

Compound: N[C@@H](C(=O)N[C@@H]1C(=O)N2C(C(=O)O)=C(Cl)CC[C@H]12)c1ccccc1
- maximum recommended daily dose (mmol/kg-bw/day) [2]: 0.0181

Compound: CCOC(=O)C1(c2ccccc2)CCN(CCC(C#N)(c2ccccc2)c2ccccc2)CC1
- maximum recommended daily dose (mmol/kg-bw/day) (TherapeuticCategory: antiperistaltic, antidiarrheal): 0.000736

Compound: CC(C)[C@@H](C)/C=C/[C@@H](C)[C@H]1CC[C@H]2/C(=C/C=C3\C[C@@H](O)CC[C@@H]3C)CCC[C@]12C
- maximum recommended daily dose (mmol/kg-bw/day) (TherapeuticCategory: regulator): 0.000105

Compound: NC(N)=NCCN1CCCCCCC1
- maximum recommended daily dose (mmol/kg-bw/day) (TherapeuticCategory: antihypertensive): 0.0042

Compound: CC(=O)Oc1ccc(C2(c3ccc(OC(C)=O)cc3)C(=O)Nc3ccccc32)cc1
- maximum recommended daily dose (mmol/kg-bw/day) (TherapeuticCategory: cathartic): 0.00208

Compound: NCC(CC(=O)O)c1ccc(Cl)cc1 (configuration not stated)
- maximum recommended daily dose (mmol/kg-bw/day) (TherapeuticCategory: skeletal muscle relaxant): 0.00622

Compound: NCCS
- maximum recommended daily dose (mmol/kg-bw/day) (TherapeuticCategory: antidote to acetaminophen): 0.432

Compound: O=C(O)CCC(=O)c1ccc2c(c1)-c1cccc3cccc-2c13
- maximum recommended daily dose (mmol/kg-bw/day) (TherapeuticCategory: choleretic): 0.0552

Compound: O=c1[nH]c(=O)n(C2CCCO2)cc1F (configuration not stated) (tested in a mixture with another compound)
- maximum recommended daily dose (mmol/kg-bw/day) [3]: 0.0641

Compound: CNCCCN1c2ccccc2CCc2ccccc21
- maximum recommended daily dose (mmol/kg-bw/day) (TherapeuticCategory: antidepressant): 0.0188

Compound: OC[C@H]1O[C@@H](n2cnc3c2NC=NC[C@H]3O)C[C@@H]1O
- maximum recommended daily dose (mmol/kg-bw/day) [3]: 0.000249

Compound: OC[C@H]1OC(O)[C@H](O)[C@@H](O)[C@@H]1O (some centres not stated)
- maximum recommended daily dose (mmol/kg-bw/day) (TherapeuticCategory: fluid and nutrient replenisher): 0.555

Compound: CCOC(=O)N1CCC(=C2c3ccc(Cl)cc3CCc3cccnc32)CC1
- maximum recommended daily dose (mmol/kg-bw/day) (TherapeuticCategory: antihistaminic): 0.000436

From PubChem BioAssay AID1195 (EPA DSSTox, 2008)
